Data: publication PMC9506414, “Novel 2,6,9-Trisubstituted Purines as Potent CDK Inhibitors Alleviating Trastuzumab-Resistance of HER2-Positive Breast Cancers” (Pharmaceuticals, 2022)

Tests used:
Assay in all cases: Kinome-wide inhibition profiling
Assay type in all cases: biochemical
p70S6Kb/RPS6KB2 = target: T1, p70S6Kb/RPS6KB2 (Homo sapiens, UniProt Q9UBS0)
T1 construct: purchased Reaction Biology Corp
Protocol: (§1) In vitro CDK12/cyclinK assays for all compounds and in vitro kinome-wide inhibition profiling of 30d at 10 μM were performed by a CRO company (Reaction Biology Corp., San Diego, CA, USA).

JAK2 = target: T2, JAK2 (Homo sapiens, UniProt O60674)
T2 construct: purchased Reaction Biology Corp
Protocol: as §1

GRK5 = target: T3, GRK5 (Homo sapiens, UniProt P34947)
T3 construct: purchased Reaction Biology Corp
Protocol: as §1

AKT1 = target: T4, AKT1 (Homo sapiens, UniProt P31749)
T4 construct: purchased Reaction Biology Corp
Protocol: as §1

CAMK2g = target: T5, CAMK2g (Homo sapiens, UniProt Q13555)
T5 construct: purchased Reaction Biology Corp
Protocol: as §1

EPHA4 = target: T6, EPHA4 (Homo sapiens, UniProt P54764)
T6 construct: purchased Reaction Biology Corp
Protocol: as §1

TRKC = target: T7, TRKC (Homo sapiens, UniProt Q16288)
T7 construct: purchased Reaction Biology Corp
Protocol: as §1

RSK3 = target: T8, RSK3 (Homo sapiens, UniProt Q15349)
T8 construct: purchased Reaction Biology Corp
Protocol: as §1

CAMK2b = target: T9, CAMK2b (Homo sapiens, UniProt Q13554)
T9 construct: purchased Reaction Biology Corp
Protocol: as §1

PRKCD = target: T10, PRKCD (Homo sapiens, UniProt Q05655)
T10 construct: purchased Reaction Biology Corp
Protocol: as §1

MST1 = target: T11, MST1 (Homo sapiens, UniProt Q13043)
T11 construct: purchased Reaction Biology Corp
Protocol: as §1

MST2 = target: T12, MST2 (Homo sapiens, UniProt Q13188)
T12 construct: purchased Reaction Biology Corp
Protocol: as §1

MNK1 = target: T13, MNK1 (Homo sapiens, UniProt Q9BUB5)
T13 construct: purchased Reaction Biology Corp
Protocol: as §1

CDK1/cyclinB = target: T14, CDK1/cyclinB (Homo sapiens, UniProt P06493)
T14 construct: purchased Reaction Biology Corp
Protocol: as §1

Haspin = target: T15, Haspin (Homo sapiens, UniProt Q8TF76)
T15 construct: purchased Reaction Biology Corp
Protocol: as §1

YANK2 = target: T16, YANK2 (Homo sapiens, UniProt Q9NY57)
T16 construct: purchased Reaction Biology Corp
Protocol: as §1

ALK = target: T17, ALK (Homo sapiens, UniProt Q9UM73)
T17 construct: purchased Reaction Biology Corp
Protocol: as §1

OSR1 = target: T18, OSR1 (Homo sapiens, UniProt O95747)
T18 construct: purchased Reaction Biology Corp
Protocol: as §1

PDGFRb = target: T19, PDGFRb (Homo sapiens, UniProt P09619)
T19 construct: purchased Reaction Biology Corp
Protocol: as §1

TESK2 = target: T20, TESK2 (Homo sapiens, UniProt Q96S53)
T20 construct: purchased Reaction Biology Corp
Protocol: as §1

JNK2 = target: T21, JNK2 (Homo sapiens, UniProt P45984)
T21 construct: purchased Reaction Biology Corp
Protocol: as §1

ERBB2 = target: T22, ERBB2 (Homo sapiens, UniProt P04626)
T22 construct: purchased Reaction Biology Corp
Protocol: as §1

CAMK4 = target: T23, CAMK4 (Homo sapiens, UniProt Q16566)
T23 construct: purchased Reaction Biology Corp
Protocol: as §1

TRKA = target: T24, TRKA (Homo sapiens, UniProt P04629)
T24 construct: purchased Reaction Biology Corp
Protocol: as §1

PAK2 = target: T25, PAK2 (Homo sapiens, UniProt Q13177)
T25 construct: purchased Reaction Biology Corp
Protocol: as §1

CLK3 = target: T26, CLK3 (Homo sapiens, UniProt P49761)
T26 construct: purchased Reaction Biology Corp
Protocol: as §1

FLT1 = target: T27, FLT1 (Homo sapiens, UniProt P17948)
T27 construct: purchased Reaction Biology Corp
Protocol: as §1

PRKG1b = target: T28, PRKG1b (Homo sapiens, UniProt Q13976)
T28 construct: purchased Reaction Biology Corp
Protocol: as §1

CTK = target: T29, CTK (Homo sapiens, UniProt P42679)
T29 construct: purchased Reaction Biology Corp
Protocol: as §1

DAPK2 = target: T30, DAPK2 (Homo sapiens, UniProt Q9UIK4)
T30 construct: purchased Reaction Biology Corp
Protocol: as §1

AKT3 = target: T31, AKT3 (Homo sapiens, UniProt Q9Y243)
T31 construct: purchased Reaction Biology Corp
Protocol: as §1

MAP3K3 = target: T32, MAP3K3 (Homo sapiens, UniProt Q99759)
T32 construct: purchased Reaction Biology Corp
Protocol: as §1

DYRK3 = target: T33, DYRK3 (Homo sapiens, UniProt O43781)
T33 construct: purchased Reaction Biology Corp
Protocol: as §1

MAP3K8 = target: T34, MAP3K8 (Homo sapiens, UniProt P41279)
T34 construct: purchased Reaction Biology Corp
Protocol: as §1

P38-delta = target: T35, P38-delta (Homo sapiens, UniProt O15264)
T35 construct: purchased Reaction Biology Corp
Protocol: as §1

LIMK1 = target: T36, LIMK1 (Homo sapiens, UniProt P53667)
T36 construct: purchased Reaction Biology Corp
Protocol: as §1

TXK = target: T37, TXK (Homo sapiens, UniProt P42681)
T37 construct: purchased Reaction Biology Corp
Protocol: as §1

WEE1 = target: T38, WEE1 (Homo sapiens, UniProt P30291)
T38 construct: purchased Reaction Biology Corp
Protocol: as §1

NEK2 = target: T39, NEK2 (Homo sapiens, UniProt P51955)
T39 construct: purchased Reaction Biology Corp
Protocol: as §1

ERK1 = target: T40, ERK1 (Homo sapiens, UniProt P27361)
T40 construct: purchased Reaction Biology Corp
Protocol: as §1

[1] = target: T41, RPS6KA5(Kin.Dom.1-N-term) (Homo sapiens, UniProt O75582)
T41 construct: RPS6KA5(Kin.Dom.1-N-term); purchased Reaction Biology Corp
Protocol: as §1

MYLK3 = target: T42, MYLK3 (Homo sapiens, UniProt Q32MK0)
T42 construct: purchased Reaction Biology Corp
Protocol: as §1

GSK3b = target: T43, GSK3b (Homo sapiens, UniProt P49841)
T43 construct: purchased Reaction Biology Corp
Protocol: as §1

T6 sequence (P54764 20-986): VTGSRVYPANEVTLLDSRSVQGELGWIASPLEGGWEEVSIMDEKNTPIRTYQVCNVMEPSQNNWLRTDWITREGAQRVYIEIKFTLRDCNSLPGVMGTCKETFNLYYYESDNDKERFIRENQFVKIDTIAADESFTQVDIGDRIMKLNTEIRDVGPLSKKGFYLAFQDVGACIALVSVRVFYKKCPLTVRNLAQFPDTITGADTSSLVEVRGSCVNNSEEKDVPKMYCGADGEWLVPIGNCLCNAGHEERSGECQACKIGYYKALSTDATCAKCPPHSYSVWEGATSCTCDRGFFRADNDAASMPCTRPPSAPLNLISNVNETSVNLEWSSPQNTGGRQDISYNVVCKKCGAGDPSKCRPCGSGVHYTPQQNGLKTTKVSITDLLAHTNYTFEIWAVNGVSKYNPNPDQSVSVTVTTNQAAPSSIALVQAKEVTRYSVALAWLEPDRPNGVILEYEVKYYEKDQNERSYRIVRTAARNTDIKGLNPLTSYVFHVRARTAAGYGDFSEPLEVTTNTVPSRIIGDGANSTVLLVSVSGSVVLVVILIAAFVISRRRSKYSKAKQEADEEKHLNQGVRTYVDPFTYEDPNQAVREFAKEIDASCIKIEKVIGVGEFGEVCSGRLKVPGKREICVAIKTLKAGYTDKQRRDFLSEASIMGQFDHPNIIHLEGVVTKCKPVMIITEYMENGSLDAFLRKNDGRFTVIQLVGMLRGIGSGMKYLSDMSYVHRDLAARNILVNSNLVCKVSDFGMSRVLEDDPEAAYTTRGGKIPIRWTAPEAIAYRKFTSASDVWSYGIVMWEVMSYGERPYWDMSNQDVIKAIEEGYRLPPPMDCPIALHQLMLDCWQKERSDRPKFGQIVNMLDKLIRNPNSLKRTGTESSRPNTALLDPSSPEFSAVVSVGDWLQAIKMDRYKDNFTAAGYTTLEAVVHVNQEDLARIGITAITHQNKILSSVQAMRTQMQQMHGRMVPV
T14 sequence (P06493 whole entry): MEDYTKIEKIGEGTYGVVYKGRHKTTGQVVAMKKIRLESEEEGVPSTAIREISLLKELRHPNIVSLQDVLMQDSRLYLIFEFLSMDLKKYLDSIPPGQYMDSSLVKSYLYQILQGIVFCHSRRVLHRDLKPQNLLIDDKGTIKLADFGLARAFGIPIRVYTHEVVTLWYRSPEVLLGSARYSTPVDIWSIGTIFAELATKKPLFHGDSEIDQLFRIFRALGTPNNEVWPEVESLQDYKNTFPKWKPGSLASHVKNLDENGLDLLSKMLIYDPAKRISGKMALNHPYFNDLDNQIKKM
T14 sequence (P14635 whole entry partner): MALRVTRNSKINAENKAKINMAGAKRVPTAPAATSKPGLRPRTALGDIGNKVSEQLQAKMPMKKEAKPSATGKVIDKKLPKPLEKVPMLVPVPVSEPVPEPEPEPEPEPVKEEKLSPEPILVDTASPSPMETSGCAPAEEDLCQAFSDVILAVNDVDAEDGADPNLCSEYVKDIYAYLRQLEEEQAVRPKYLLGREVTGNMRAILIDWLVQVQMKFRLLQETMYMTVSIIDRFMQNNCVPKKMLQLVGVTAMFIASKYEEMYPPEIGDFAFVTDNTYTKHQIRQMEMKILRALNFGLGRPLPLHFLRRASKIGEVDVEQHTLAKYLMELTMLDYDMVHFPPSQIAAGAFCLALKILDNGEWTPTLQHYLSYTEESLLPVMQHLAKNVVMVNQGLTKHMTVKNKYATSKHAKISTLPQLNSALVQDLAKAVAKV
T4 sequence (P31749 whole entry): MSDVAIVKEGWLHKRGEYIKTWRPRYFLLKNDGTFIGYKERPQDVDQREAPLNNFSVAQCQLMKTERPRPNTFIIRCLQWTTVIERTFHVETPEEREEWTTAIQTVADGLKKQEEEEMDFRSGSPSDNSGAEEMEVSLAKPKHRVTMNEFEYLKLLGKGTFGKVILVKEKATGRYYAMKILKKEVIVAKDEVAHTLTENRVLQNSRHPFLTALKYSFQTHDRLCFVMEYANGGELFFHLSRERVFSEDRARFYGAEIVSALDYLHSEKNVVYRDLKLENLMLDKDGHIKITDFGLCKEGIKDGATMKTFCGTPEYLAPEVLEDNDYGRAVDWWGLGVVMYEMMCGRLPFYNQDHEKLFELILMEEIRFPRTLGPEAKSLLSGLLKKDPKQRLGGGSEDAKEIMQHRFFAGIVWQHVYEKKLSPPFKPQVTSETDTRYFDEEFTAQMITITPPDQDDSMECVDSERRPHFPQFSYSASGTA
T42 sequence (Q32MK0 whole entry): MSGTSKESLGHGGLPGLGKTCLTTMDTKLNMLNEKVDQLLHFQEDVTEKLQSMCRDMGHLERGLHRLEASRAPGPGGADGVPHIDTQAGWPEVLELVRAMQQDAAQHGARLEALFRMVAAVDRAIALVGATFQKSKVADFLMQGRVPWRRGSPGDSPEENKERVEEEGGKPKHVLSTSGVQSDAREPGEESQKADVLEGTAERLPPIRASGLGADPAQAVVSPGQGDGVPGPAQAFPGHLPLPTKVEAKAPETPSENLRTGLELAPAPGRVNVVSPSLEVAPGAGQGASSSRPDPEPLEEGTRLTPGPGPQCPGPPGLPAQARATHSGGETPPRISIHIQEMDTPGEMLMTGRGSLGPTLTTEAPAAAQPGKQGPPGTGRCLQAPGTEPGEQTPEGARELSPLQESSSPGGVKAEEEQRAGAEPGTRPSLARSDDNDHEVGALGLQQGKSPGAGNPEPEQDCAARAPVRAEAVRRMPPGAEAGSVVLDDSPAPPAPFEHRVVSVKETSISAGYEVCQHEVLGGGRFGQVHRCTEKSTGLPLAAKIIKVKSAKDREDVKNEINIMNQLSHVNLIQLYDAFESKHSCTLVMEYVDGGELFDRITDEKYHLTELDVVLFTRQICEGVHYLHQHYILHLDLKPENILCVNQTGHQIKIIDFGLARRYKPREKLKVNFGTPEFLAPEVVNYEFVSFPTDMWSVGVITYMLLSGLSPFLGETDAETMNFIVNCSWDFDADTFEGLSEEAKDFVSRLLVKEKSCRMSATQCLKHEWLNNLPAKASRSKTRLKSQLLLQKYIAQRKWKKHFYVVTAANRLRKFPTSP
T21 sequence (P45984 whole entry): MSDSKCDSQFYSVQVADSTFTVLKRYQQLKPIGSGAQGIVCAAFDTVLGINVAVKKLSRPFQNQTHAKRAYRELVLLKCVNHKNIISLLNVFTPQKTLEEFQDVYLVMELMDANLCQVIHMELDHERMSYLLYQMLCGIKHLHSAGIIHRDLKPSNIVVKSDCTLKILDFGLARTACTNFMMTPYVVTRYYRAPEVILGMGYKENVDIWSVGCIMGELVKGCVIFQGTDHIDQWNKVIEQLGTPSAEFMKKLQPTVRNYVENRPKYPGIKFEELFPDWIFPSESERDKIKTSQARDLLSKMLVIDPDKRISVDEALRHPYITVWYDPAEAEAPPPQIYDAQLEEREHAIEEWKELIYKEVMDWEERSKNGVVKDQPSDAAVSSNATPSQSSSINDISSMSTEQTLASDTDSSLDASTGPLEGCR
T13 sequence (Q9BUB5 whole entry): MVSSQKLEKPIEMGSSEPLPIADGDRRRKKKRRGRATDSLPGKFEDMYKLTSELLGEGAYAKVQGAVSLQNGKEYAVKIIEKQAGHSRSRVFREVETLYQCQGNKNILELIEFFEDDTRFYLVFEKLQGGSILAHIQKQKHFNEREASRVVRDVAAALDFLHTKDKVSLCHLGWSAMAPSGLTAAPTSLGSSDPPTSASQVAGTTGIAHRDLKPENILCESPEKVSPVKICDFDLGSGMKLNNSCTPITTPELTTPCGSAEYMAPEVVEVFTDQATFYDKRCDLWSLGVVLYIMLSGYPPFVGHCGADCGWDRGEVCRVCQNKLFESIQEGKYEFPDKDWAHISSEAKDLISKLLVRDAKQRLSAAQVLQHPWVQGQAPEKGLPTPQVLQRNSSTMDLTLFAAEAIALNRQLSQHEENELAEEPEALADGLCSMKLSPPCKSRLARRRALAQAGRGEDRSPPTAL
T15 sequence (Q8TF76 whole entry): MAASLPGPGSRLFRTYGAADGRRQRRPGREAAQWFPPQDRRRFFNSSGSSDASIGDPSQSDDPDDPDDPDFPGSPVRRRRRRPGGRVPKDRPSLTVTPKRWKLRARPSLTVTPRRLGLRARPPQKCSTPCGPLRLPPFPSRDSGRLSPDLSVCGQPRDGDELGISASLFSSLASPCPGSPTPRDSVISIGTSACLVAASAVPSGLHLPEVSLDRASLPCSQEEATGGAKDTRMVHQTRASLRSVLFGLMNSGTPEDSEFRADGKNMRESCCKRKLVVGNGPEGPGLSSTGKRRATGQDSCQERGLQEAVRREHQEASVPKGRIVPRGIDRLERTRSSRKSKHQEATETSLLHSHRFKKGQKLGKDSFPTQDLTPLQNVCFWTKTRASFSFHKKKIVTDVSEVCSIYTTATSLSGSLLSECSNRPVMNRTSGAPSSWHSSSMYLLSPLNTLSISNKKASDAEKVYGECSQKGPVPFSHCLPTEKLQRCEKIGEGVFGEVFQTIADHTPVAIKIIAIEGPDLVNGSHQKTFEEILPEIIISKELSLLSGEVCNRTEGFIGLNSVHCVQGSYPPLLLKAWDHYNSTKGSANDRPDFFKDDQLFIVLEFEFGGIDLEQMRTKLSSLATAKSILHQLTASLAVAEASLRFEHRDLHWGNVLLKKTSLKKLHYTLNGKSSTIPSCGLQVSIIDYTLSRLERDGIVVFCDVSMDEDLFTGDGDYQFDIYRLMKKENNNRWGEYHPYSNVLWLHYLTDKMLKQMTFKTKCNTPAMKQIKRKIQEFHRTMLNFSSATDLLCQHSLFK

SMILES: CCn1cnc2c(NCc3ccc(-c4ccccn4)nc3)nc(-c3ccc(N)nc3)nc21 [Compound 30d, N-([2,2′-Bipyridin]-5-ylmethyl)-2-(6-aminopyridin-3-yl)-9-ethyl-9H-purin-6-amine]
- remaining activity at 10 µM (p70S6Kb/RPS6KB2): 92.2%
- remaining activity at 10 µM (JAK2): 87%
- remaining activity at 10 µM (GRK5): 91.5%
- remaining activity at 10 µM (AKT1): 94.9%
- remaining activity at 10 µM (CAMK2g): 105%
- inhibition at 10 µM (EPHA4): > 95%
- remaining activity at 10 µM (EPHA4): 3.6%
- remaining activity at 10 µM (TRKC): 54.9%
- remaining activity at 10 µM (RSK3): 58.1%
- remaining activity at 10 µM (CAMK2b): 65.2%
- remaining activity at 10 µM (PRKCD): 95.2%
- remaining activity at 10 µM (MST1): 62.2%
- remaining activity at 10 µM (MST2): 53.5%
- remaining activity at 10 µM (MNK1): 89.3%
- inhibition at 10 µM (CDK1/cyclinB): > 95%
- remaining activity at 10 µM (CDK1/cyclinB): 2.1%
- remaining activity at 10 µM (Haspin): 79.4%
- remaining activity at 10 µM (YANK2): 57.6%
- remaining activity at 10 µM (ALK): 59.7%
- remaining activity at 10 µM (OSR1): 50.8%
- remaining activity at 10 µM (PDGFRb): 34.7%
- remaining activity at 10 µM (TESK2): 83.7%
- remaining activity at 10 µM (JNK2): 61.7%
- remaining activity at 10 µM (ERBB2): 74.2%
- remaining activity at 10 µM (CAMK4): 95.2%
- remaining activity at 10 µM (TRKA): 28.7%
- remaining activity at 10 µM (PAK2): 46.7%
- remaining activity at 10 µM (CLK3): 94.6%
- remaining activity at 10 µM (FLT1): 36.3%
- remaining activity at 10 µM (PRKG1b): 97.6%
- remaining activity at 10 µM (CTK): 87.6%
- remaining activity at 10 µM (DAPK2): 85.7%
- remaining activity at 10 µM (AKT3): 96.1%
- remaining activity at 10 µM (MAP3K3): 94%
- remaining activity at 10 µM (DYRK3): 58.6%
- remaining activity at 10 µM (MAP3K8): 102%
- remaining activity at 10 µM (P38-delta): 102%
- remaining activity at 10 µM (LIMK1): 59.9%
- remaining activity at 10 µM (TXK): 34.9%
- remaining activity at 10 µM (WEE1): 90.2%
- remaining activity at 10 µM (NEK2): 91.1%
- remaining activity at 10 µM (ERK1): 9.4%
- remaining activity at 10 µM [1]: 80.5%
- remaining activity at 10 µM (MYLK3): 105%
- remaining activity at 10 µM (GSK3b): 5.8%
